From PMC5656322, “BAK1 is involved in AtRALF1-induced inhibition of root cell expansion” (PLoS Genetics, 2017)
“Also recorded” adds a separate entry of the source. Where no end group is shown, it is not given here.

Assays:
[1] = tested on: microsomal fractions from the roots of Arabidopsis; experiment: Binding assay with acridinium-labeled AtRALF1, microsomal fractions; design: species or system Arabidopsis thaliana
Protocol: (A) Whole seedlings (5 days old) were treated for 15 min with acriAtRALF1 (acriR1), acriR1 and an excess of unlabeled AtRALF34 (R34), RALF1(9–49) [(R-9-49)], or AtRALF1 (R1), as indicated. The values are the mean ± SD of two measurements (5 seedlings each). (B) Microsomal fractions from wild-type and bak1 mutants were incubated for 15 min with acriAtRALF1 (acriR1), with acriR1 and an excess of unlabeled RALF1(9–49) [(R-9-49)], or with AtRALF1 (R1), as indicated. The values are the mean ± SD of two measurements. The proportions of labeled: unlabeled proteins are shown in parentheses. Single and triple asterisks indicate P < 0.1 and P < 0.01 (Student’s t test).
Arabidopsis seedlings were grown for 5 days on vertical plates. Roots were homogenized in extraction buffer [300 mM sucrose, 100 mM Tris-HCl pH 7.5, 25 mM EDTA, 25 mM NaF, 1 mM Na2MoO4, 1 mM PMSF and protease inhibitor cocktail (Roche), adjusted to pH 6.2], and the homogenate was spun at 2,000 x g for 10 min at 4 °C. The supernatant was recovered and centrifuged at 100,000 x g for 50 min at 4 °C to precipitate the microsomal pellet. The pellet was resuspended in the extraction buffer plus 0.5% Triton-X. Seedlings or microsomal fractions were placed in 200 μl of medium and incubated with 7 nM acridinium-labeled peptide (acriAtRALF1 or acriAtRALF34) and different concentrations of AtRALF1, AtRALF34 or RALF1(9–49) for 15–20 min at 4 °C on a shaker. After incubation, the seedlings or microsomal fractions were washed three times with the same medium. Unless indicated otherwise, five entire seedlings and approximately 10 ng of microsomal fractions were used per treatment. The resulting luminescence emissions from the acridinium were measured using a microplate reader (Biotec ELx 800) at 2 s after injecting 50 μl of a solution containing 20 mM H2O2 in 0.1 M NaOH. These experiments were repeated at least three times using independent biological replicates. Duplicates were used for each concentration or treatment. The data shown are from one representative experiment.

[2] = tested on: Arabidopsis seedlings, primary root; experiment: Root growth inhibition assay, vertical plates; type: in vivo, Arabidopsis thaliana
Protocol: (A) and (B) Arabidopsis seedlings (2 days old) were treated with 10 μM AtRALF1 or water (H20) for 2 days. The values are the mean ± SD of at least 25 seedlings. Triple asterisks indicate P < 0.01 (Student’s t test); ns, not significant. (C) Four-day-old seedlings were transferred to media containing different concentrations of AtRALF1, and the primary root length was measured after 8 days of treatment. The data represent the mean value ± SD of 30 seedlings. […] Representative Arabidopsis seedlings after 8 days of treatment with AtRALF1 are shown below. Seedlings were arranged on plates after the treatment for imaging. Scale bars, 1 cm. (D) Two-day-old seedlings were treated with 10 μM AtRALF1 or water for 2 days, and root cell length was measured after 2 days of treatment. Cells from the root endodermis in the differentiation zone were measured. The values are the mean ± SD of approximately 150 cells. Triple asterisks indicate P < 0.01 (Student’s t test); ns, not significant.
Aliquots of 1 ml of medium containing seeds were distributed into 24-well plates. The peptides (10 μM) were added after 2 days, and the root length was measured 2 days after treatment. To maximize root growth, the seeds were germinated in vertical plates. […] The root length was measured 8 days after treatment unless stated otherwise. Control plants were grown under identical conditions in a peptide-free medium. Quantitative data were obtained as previously described. […] The data from one representative experiment are shown. For cell length measurements, AtRALF1 peptide (10 μM) was added after 2 days of germination, and the cell length was measured after 2 days of treatment. The cell wall was stained with a 1 mg ml^-1 propidium iodide solution (Sigma) in the dark for 15 min and washed twice with water. Cells of the endodermis of the root differentiation zone were imaged and measured using confocal microscopy (Olympus FV1000). Approximately 30 plants from each genetic background and at least 5 cells per root were measured. The wavelengths for excitation and emission were 555 and 655 nm, respectively. Image processing was completed using the Olympus FluoView software.
Supplementary file pgen.1007053.s004.pdf: S4 Fig Analyses of root growth of Arabidopsis seedlings treated with AtRALF1 peptide for 8 days and evaluated daily. Four-day-old seedlings were transferred to media containing different concentrations of AtRALF1, and the primary root length was measured daily during the 8 days of treatment. Genotypes Wt, bak1-1, bak1-3 and bak1-4 are indicated on top of each series of graphics. The seedlings were treated with 0, 0.5, 1, 5 and 10 μM AtRALF1. The data represent the mean values ± SD of 30 seedlings. Double and triple asterisks indicate P < 0.05 and P <0.01, respectively (Student’s t test); ns, not significant. (PDF) Click here for additional data file.
Four-day-old seedlings were transferred to medium containing 10 μM AtRALF1, and the primary root length was measured after 8 days of treatment. The data represent the mean value ± SD of 20 seedlings. Triple asterisks indicate P < 0.01 (Student’s t test); ns, not significant. Representative Arabidopsis seedlings after 8 days of treatment with AtRALF1 are shown. The seedlings were arranged on plates after the treatment for imaging. Scale bars, 1 cm. (PDF) Click here for additional data file.
Four-day-old seedlings were transferred to medium containing 0.1 μM BAP, and the primary root length was measured after 8 days of treatment. The data represent the mean value ± SD of 10 seedlings.

[3] = tested on: cytosolic Ca^2+ in Arabidopsis seedlings; details: from extra- and intracellular stores; ref [1],[11]; cited from earlier work
BAK1 gene = details: Arabidopsis plants; ref [10]; cited from earlier work
From the text: It has been previously shown through microarray experiments that the treatment of Arabidopsis plants with AtRALF1 causes BAK1 gene induction by approximately 1.56-fold. Our data are consistent with that previous observation and add a new gene to the list of AtRALF1-inducible genes. […] The fact that AtRALF1 peptide and BL treatment both induce BAK1 gene expression provides further evidence that BAK1 ...

AtRALF1: root-specific RALF isoform in Arabidopsis; recombinant peptide hormone produced in E. coli (ATTKYISYQSLKRNSVPCSRRGASYYNCQNGAQANPYSRGCSKIARCRS; ends and bridges not checked; cysteine pairing not given here)
share of AtRALF1 binding due to BAK1 ([1]; microsomal fractions from roots): approximately 15%
acriAtRALF1 binding reduced to, of the total ([1]; microsomal fractions of wild-type and bak1, 10-fold excess of AtRALF1): approximately 30%
acriAtRALF1 binding reduced to, of the total binding ([1]; microsomal fractions of wild-type and bak1, 100- or 500-fold excess of AtRALF1): approximately 60%
sensitivity of root growth ([2]; 8 days of treatment, bak1-1, bak1-3, bak1-4 mutants): insensitive to the AtRALF1 peptide
daily root growth ([2]; bak1-mutant lines, 8-day treatment, 0-10 μM): No differences were observed in the daily root growth
highest concentration to which bak1 mutants are insensitive ([2]; bak1 mutants, 8 days): ≥ 10 µM
sensitivity of root growth ([2]; bak1 mutants, side by side with fer4, 8 days): insensitive to any tested concentrations of the peptide
primary root growth inhibition ([2]; bak7 mutant, 10 μM, 8 days): inhibited primary root growth
sensitivity of root growth ([2]; fer4 mutant, side by side with bak1 mutants, 8 days): conditional insensitivity to AtRALF1 treatment; also recorded: insensitive to AtRALF1 peptide in low concentrations only
dose with significant differences in root growth by the third day of treatment ([2]; wild-type, 0.5-10 μM tested, P < 0.05 / 0.01): ≥ 1 µM
cytoplasmic Ca^2+ [3]: rapid increase in cytoplasmic Ca^2+
BAK1 gene induction (microarray) (BAK1 gene): approximately 1.56 -fold
